Measurements as given in ChEMBL document CHEMBL1201862, “PubChem BioAssay data set” (2004).
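Results reflect a 48-hour exposure of cells in 96-well plates to compound at five concentrations. GI50 = concentration required for 50% inhibition of growth.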 Active and inactive are the calls of the source. No stated cut-off is given here; in the data, active = GI50 up to about 1.1 µM and inactive = higher.

Legend:
Assay in all cases: DTP human tumour cell line panel, 48 h
IGROV-1 = test system: IGROV-1
SR = test system: SR
SF-268 = test system: SF-268
786-0 = test system: 786-0
TK-10 = test system: TK-10
OVCAR-5 = test system: OVCAR-5
LOX IMVI = test system: LOX IMVI
HCT-15 = test system: HCT-15
MOLT-4 = test system: MOLT-4
CAKI-1 = test system: CAKI-1
RXF 393 = test system: RXF 393
M14 = test system: M14
A549 = test system: A549
SN12C = test system: SN12C
PC-3 = test system: PC-3
HT-29 = test system: HT-29
UO-31 = test system: UO-31
SNB-19 = test system: SNB-19
K562 = test system: K562
SW-620 = test system: SW-620

Row | SMILES | GI50 (IGROV-1) | GI50 (SR) | GI50 (SF-268) | GI50 (786-0) | GI50 (TK-10) | GI50 (OVCAR-5) | GI50 (LOX IMVI) | GI50 (HCT-15) [µM] | GI50 (MOLT-4) | GI50 (CAKI-1) | GI50 (RXF 393) | GI50 (M14) | GI50 (A549) | GI50 (SN12C) | GI50 (PC-3) | GI50 (HT-29) | GI50 (UO-31) | GI50 (SNB-19) | GI50 (K562) | GI50 (SW-620)
1 | CN(C)N1C(=O)S/C(=C\c2ccc([N+](=O)[O-])cc2)C1=O | > 100 µM (inactive) | 57.4 µM (inactive) | > 100 µM (inactive) | > 100 µM (inactive) | > 100 µM (inactive) | > 100 µM (inactive) | > 100 µM (inactive) | > 100 | > 100 µM (inactive) | > 100 µM (inactive) | > 100 µM (inactive) | > 100 µM (inactive) | > 100 µM (inactive) | > 100 µM (inactive) | > 100 µM (inactive) | > 100 µM (inactive) | – | – | – | –
2 | Nc1nc(Cl)cc(NCC2(CCO)CCC2)n1 | > 100 µM (inactive) | > 100 µM (inactive) | – | > 100 µM (inactive) | > 100 µM (inactive) | > 100 µM (inactive) | > 100 µM (inactive) | > 100 | > 100 µM (inactive) | > 100 µM (inactive) | 80.5 µM (inactive) | – | > 100 µM (inactive) | > 100 µM (inactive) | > 100 µM (inactive) | > 100 µM (inactive) | > 100 µM (inactive) | > 100 µM (inactive) | > 100 µM (inactive) | > 100 µM (inactive)
3 | CN1C(=O)[C@@H]2[C@@H]3c4ccccc4N(S(=O)(=O)C(F)(F)F)[C@@H]3c3[nH]c4ccccc4c3[C@@H]2C1=O | 0.175 µM (active) | 4.9 µM (inactive) | > 100 µM (inactive) | 63.7 µM (inactive) | 47.8 µM (inactive) | > 100 µM (inactive) | > 100 µM (inactive) | 16.9 | 4.3 µM (inactive) | > 100 µM (inactive) | 10.3 µM (inactive) | – | 11.2 µM (inactive) | > 100 µM (inactive) | 8.47 µM (inactive) | 7.67 µM (inactive) | 14.1 µM (inactive) | > 100 µM (inactive) | 7.28 µM (inactive) | > 100 µM (inactive)
4 | CC1(C)CC(=O)c2c(nc3c4c([nH]c(-c5ccc([N+](=O)[O-])cc5)c24)CC(C)(C)C3)C1 | – | 1.07 µM (active) | 50.9 µM (inactive) | 21.3 µM (inactive) | 50.7 µM (inactive) | 58.1 µM (inactive) | 31.3 µM (inactive) | 25.2 | 4.14 µM (inactive) | 44.1 µM (inactive) | 25.8 µM (inactive) | 27.7 µM (inactive) | 27.6 µM (inactive) | 53.3 µM (inactive) | 31.7 µM (inactive) | 11.1 µM (inactive) | 29.6 µM (inactive) | 48.4 µM (inactive) | 20.1 µM (inactive) | 47.4 µM (inactive)
5 | C[C@]12CC[C@H](O)CC1=CC[C@@H]1[C@@H]2CC[C@]2(C)C(=O)CC[C@@H]12 [PRASTERONE] | – | > 100 µM (inactive) | > 100 µM (inactive) | > 100 µM (inactive) | > 100 µM (inactive) | > 100 µM (inactive) | > 100 µM (inactive) | > 100 | > 100 µM (inactive) | > 100 µM (inactive) | > 100 µM (inactive) | > 100 µM (inactive) | > 100 µM (inactive) | > 100 µM (inactive) | > 100 µM (inactive) | > 100 µM (inactive) | > 100 µM (inactive) | > 100 µM (inactive) | – | > 100 µM (inactive)
6 | Cc1cc(C)c(/C=C2\C(=O)Nc3ccccc32)[nH]1 [SEMAXANIB] | – | 17.9 µM (inactive) | > 100 µM (inactive) | > 100 µM (inactive) | > 100 µM (inactive) | > 69 µM (inactive) | > 100 µM (inactive) | 34.8 | > 78.2 µM (inactive) | > 59.2 µM (inactive) | > 100 µM (inactive) | 69 µM (inactive) | > 65.3 µM (inactive) | > 100 µM (inactive) | > 100 µM (inactive) | 35.6 µM (inactive) | 34.5 µM (inactive) | > 100 µM (inactive) | > 100 µM (inactive) | > 87.7 µM (inactive)
